Consider 18 compounds from publication doi:10.1101/2022.01.05.475095v1 (biorxiv, 2022).

The structures appear in SMILES notation.

The first experiment has as its target T1, SARS-CoV-2 Mpro (Severe acute respiratory syndrome coronavirus 2, UniProt P0DTD1). Briefly: biochemical. As to conditions: read-out: % inhibition at 10 μM.
A word on the inhibition: it is how much of the control response was suppressed. For the compound `CC(=O)c1ccc(N(Cc2cn(S(=O)(=O)c3ccc(C)cc3)nn2)C2=CC(=O)c3ccccc3C2=O)cc1` [compound 318, 318], the inhibition at 10 µM worked out at 45 ± 13%.

A further experiment has as its target T1, SARS-CoV-2 Mpro. Briefly: fluorogenic quenched peptide cleavage assay.
Settings: not given
The class given is biochemical.
Broadly, the IC50 is the point on the concentration scale where inhibition reaches its midpoint. A higher IC50 goes with lower potency. `COc1ccc(SC2=C(Sc3ccc(OC)cc3)C(=O)c3ccccc3C2=O)cc1` [compound 382, 382]: the IC50 turned out to be 0.41 ± 0.02 µM.
On the same count and under the same terms, as for `CC(=O)NC1=CC(=O)c2c(cccc2[N+](=O)[O-])C1=O` [compound 415, 415], the figure is 5 ± 0.2 µM; as for `O=C1C(Sc2ccccc2)=C(Sc2ccccc2)C(=O)c2ccccc21` [compound 379, 379], 0.63 ± 0.04 µM.

Another experiment deals with T1, SARS-CoV-2 Mpro. Briefly: biochemical. As to conditions: read-out: Mpro % inhibition at 10 µM.
As to `O=C1C(Sc2ccc(Br)cc2)=C(Sc2ccc(Br)cc2)C(=O)c2ccccc21` [compound 380, 380], the inhibition at 10 µM was determined as 12 ± 3%.
In the case of `Cc1ccc(S(=O)(=O)n2cc(CNC3=C(Br)C(=O)c4ccccc4C3=O)nn2)cc1` [compound 321, 321], the inhibition at 10 µM came to 40 ± 8%.
On the same count and under the same terms, as for `COc1ccc(SC2=C(Sc3ccc(OC)cc3)C(=O)c3ccccc3C2=O)cc1` [compound 382], the figure is 100%; as for `CC(=O)NC1=CC(=O)c2cccc(O)c2C1=O` [compound 414, 414], 29 ± 2%.
Still for that read-out and setting: to `CC1(C)CC2=C(O1)c1ccccc1C(=NNc1ccccc1)C2=O` [compound 673, 673] belongs 8 ± 3%.
Still for that read-out and setting: as for `CC1(C)OC2=C(C(=O)C(=O)c3ccccc32)C1n1cc(CNC2=CC(=O)c3ccccc3C2=O)nn1` (stereo not shown) [compound 189], the figure is 25 ± 2%; as for `Cc1ccc(S(=O)(=O)c2cccc3c2C(=O)c2ccccc2C3=O)cc1` [compound 477, 477], 5 ± 2%; as for `CC(=O)NC1=CC(=O)c2c(cccc2[N+](=O)[O-])C1=O` [compound 415, 415], 100%.
As to `CC1(C)OC2=C(CC1Br)C(=O)C(=NNc1ccccc1)c1ccccc12` (stereo not shown) [compound 666, 666], the inhibition at 10 µM amounted to 5 ± 5%.
On the same count and under the same terms, to `Cc1ccc(S(=O)(=O)n2cc(CNC3=C(Cl)C(=O)c4ccccc4C3=O)nn2)cc1` [compound 320, 320] belongs 11 ± 6%; to `Cc1ccc(S(=O)(=O)n2cc(CN(C3=CC(=O)c4ccccc4C3=O)c3ccc(Br)cc3)nn2)cc1` [compound 314], 36 ± 2%; to `O=C1C(Sc2ccccc2)=C(Sc2ccccc2)C(=O)c2ccccc21` [compound 379], 100%.
On the same count and under the same terms, to `CC1(C)OC2=C(C(=O)C(=O)c3ccccc32)C1n1cc(CNC2=C(Br)C(=O)c3ccccc3C2=O)nn1` (stereo not shown) [compound 191] belongs 55 ± 3%; to `CC1(C)OC2=C(C(=O)C(=O)c3ccccc32)C1n1cc(-c2ccccc2)nn1` (stereo not shown) [compound 159], 35 ± 1%; to `Cc1ccc(S(=O)(=O)n2cc(CNC3=CC(=O)c4ccccc4C3=O)nn2)cc1` [compound 319], 5 ± 2%.
